Measured values published in US8536202B2, “Triazole-substituted anthranilamides as pesticides” (Bayer Cropscience AG, priority 2010, dated 2013).
Read-outs that look alike come from different tables or passages of the source.

Columns and labels:
[1] = test system: larvae of the mustard beetle (Phaedon cochleariae); experiment: Phaedon test (PHAECO spray treatment); format: in vivo; conditions: 168 h, 100 g/ha, after 7 days, read-out: activity in %
Summary of the method: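 Compound dissolved in acetone/dimethylformamide with alkylaryl polyglycol ether emulsifier, then diluted with emulsifier-containing water to test concentration for spray treatment of Phaedon cochleariae larvae. Activity scored after 7 days as % larvae killed (100% = all dead, 0% = none).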

[2] = test system: caterpillars of the armyworm (Spodoptera frugiperda); experiment: Spodoptera frugiperda test (SPODFR spray treatment); format: in vivo; conditions: 168 h, 100 g/ha, after 7 days, read-out: activity in %
Summary of the method: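 Maize leaf discs sprayed with compound diluted in emulsifier-containing water (acetone/DMF solvent, alkylaryl polyglycol ether emulsifier), dried, then infested with armyworm caterpillars. Kill scored after 7 days as % mortality, 100% = all caterpillars dead, 0% = none.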

[3] = log P determination by HPLC on reversed-phase columns (EEC Directive 79/831 Annex V.A8); format: physicochemical; conditions: pH 2.7
Summary of the method: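 log P from reversed-phase LC-MS retention at pH 2.7, 0.1% formic acid water/acetonitrile gradient 10–95% acetonitrile. Calibrated against C3–C16 unbranched alkan-2-ones, interpolating linearly between adjacent alkanones.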

## Cc1cc(I)cc(C(=O)NC2CC2)c1NC(=O)c1cc(Cn2nc(C(F)(F)F)c(C(F)(F)F)n2)nn1-c1ncccc1Cl [Example 390]
[1]
  pest or weed control at 100 g/ha: 100%
[2]
  pest or weed control at 100 g/ha: 100%
[3]
  chromatographic logP: 4.19

## Cc1cc(I)cc(C(=O)NC(C)C2CC2)c1NC(=O)c1cc(Cn2nc(C(F)(F)F)c(C(F)(F)F)n2)nn1-c1ncccc1Cl (stereo not drawn) [Example 391]
[1]
  pest or weed control at 100 g/ha: 100%
[2]
  pest or weed control at 100 g/ha: 100%
[3]
  chromatographic logP: 4.76

## CCNC(=O)c1cc(Cl)cc(C)c1NC(=O)c1cc(Cn2nc(C(F)(F)F)c(C(F)(F)F)n2)nn1-c1ncccc1Cl [Example 392]
[1]
  pest or weed control at 100 g/ha: 100%
[2]
  pest or weed control at 100 g/ha: 100%
[3]
  chromatographic logP: 3.98

## Cc1cc(Cl)cc(C(=O)NC2CC2)c1NC(=O)c1cc(Cn2nc(C(F)(F)F)c(C(F)(F)F)n2)nn1-c1ncccc1Cl [Example 394]
[1]
  pest or weed control at 100 g/ha: 100%
[2]
  pest or weed control at 100 g/ha: 100%
[3]
  chromatographic logP: 3.96

## Cc1cc(C#N)cc(C(=O)NCC2CC2)c1NC(=O)c1cc(Cn2nc(C(F)(F)F)c(C(F)(F)F)n2)nn1-c1ncccc1Cl [Example 395]
[1]
  pest or weed control at 100 g/ha: 100%
[2]
  pest or weed control at 100 g/ha: 100%
[3]
  chromatographic logP: 3.89

## CCNC(=O)c1cc(C#N)cc(C)c1NC(=O)c1cc(Cn2nc(C(F)(F)F)c(C(F)(F)F)n2)nn1-c1ncccc1Cl [Example 397]
[1]
  pest or weed control at 100 g/ha: 100%
[2]
  pest or weed control at 100 g/ha: 100%
[3]
  chromatographic logP: 3.61

## Cc1cc(C#N)cc(C(=O)NC(C)C)c1NC(=O)c1cc(Cn2nc(C(F)(F)F)c(C(F)(F)F)n2)nn1-c1ncccc1Cl [Example 398]
[1]
  pest or weed control at 100 g/ha: 100%
[2]
  pest or weed control at 100 g/ha: 100%
[3]
  chromatographic logP: 3.84

## Cc1cc(C#N)cc(C(=O)NC2CC2)c1NC(=O)c1cc(Cn2nc(C(F)(F)F)c(C(F)(F)F)n2)nn1-c1ncccc1Cl [Example 399]
[1]
  pest or weed control at 100 g/ha: 100%
[2]
  pest or weed control at 100 g/ha: 100%
[3]
  chromatographic logP: 3.59

## Cc1cc(I)cc(C(=O)NCC2CC2)c1NC(=O)c1cc(Cn2nc(C(F)(F)F)c(C(F)(F)F)n2)nn1-c1ncccc1Cl [Example 401]
[1]
  pest or weed control at 100 g/ha: 100%
[2]
  pest or weed control at 100 g/ha: 100%
[3]
  chromatographic logP: 4.52

## Cc1cc(I)cc(C(=O)NC(C)C)c1NC(=O)c1cc(Cn2nc(C(F)(F)F)c(C(F)(F)F)n2)nn1-c1ncccc1Cl [Example 403]
[1]
  pest or weed control at 100 g/ha: 100%
[2]
  pest or weed control at 100 g/ha: 100%
[3]
  chromatographic logP: 4.47

## Cc1cc(I)cc(C(=O)NC(C)(C)C)c1NC(=O)c1cc(Cn2nc(C(F)(F)F)c(C(F)(F)F)n2)nn1-c1ncccc1Cl [Example 404]
[1]
  pest or weed control at 100 g/ha: 100%
[2]
  pest or weed control at 100 g/ha: 100%
[3]
  chromatographic logP: 4.84

## CNC(=O)c1cc(I)cc(C)c1NC(=O)c1cc(Cn2nc(C(F)(F)F)c(C(F)(F)F)n2)nn1-c1ncccc1Cl [Example 405]
[1]
  pest or weed control at 100 g/ha: 100%
[2]
  pest or weed control at 100 g/ha: 100%
[3]
  chromatographic logP: 4.03

## Cc1cc(Cl)cc(C(=O)NCC2CC2)c1NC(=O)c1cc(Cn2nc(C(F)(F)F)c(C(F)(F)F)n2)nn1-c1ncccc1Cl [Example 406]
[1]
  pest or weed control at 100 g/ha: 100%
[2]
  pest or weed control at 100 g/ha: 100%
[3]
  chromatographic logP: 4.29

## Cc1cc(Cl)cc(C(N)=O)c1NC(=O)c1cc(Cn2nc(C(F)(F)F)c(C(F)(F)F)n2)nn1-c1ncccc1Cl [Example 407]
[1]
  pest or weed control at 100 g/ha: 100%
[2]
  pest or weed control at 100 g/ha: 100%
[3]
  chromatographic logP: 3.49

## Cc1cc(Cl)cc(C(=O)NC(C)C)c1NC(=O)c1cc(Cn2nc(C(F)(F)F)c(C(F)(F)F)n2)nn1-c1ncccc1Cl [Example 409]
[1]
  pest or weed control at 100 g/ha: 100%
[2]
  pest or weed control at 100 g/ha: 100%
[3]
  chromatographic logP: 4.23

## Cc1cc(Cl)cc(C(=O)NC(C)C2CC2)c1NC(=O)c1cc(Cn2nc(C(F)(F)F)c(C(F)(F)F)n2)nn1-c1ncccc1Cl (stereo not drawn) [Example 410]
[1]
  pest or weed control at 100 g/ha: 100%
[2]
  pest or weed control at 100 g/ha: 100%
[3]
  chromatographic logP: 4.5

## CNC(=O)c1cc(Cl)cc(C)c1NC(=O)c1cc(Cn2nc(C(F)(F)F)c(C(F)(F)F)n2)nn1-c1ncccc1Cl [Example 411]
[1]
  pest or weed control at 100 g/ha: 100%
[2]
  pest or weed control at 100 g/ha: 100%
[3]
  chromatographic logP: 3.78

## Cc1cc(C#N)cc(C(=O)NC(C)C2CC2)c1NC(=O)c1cc(Cn2nc(C(F)(F)F)c(C(F)(F)F)n2)nn1-c1ncccc1Cl (stereo not drawn) [Example 413]
[1]
  pest or weed control at 100 g/ha: 100%
[2]
  pest or weed control at 100 g/ha: 100%
[3]; reversed-phase C18 HPLC column, HPLC on reversed-phase columns (C 18), EEC Directive 79/831 Annex V.A8, read-out: logP
  chromatographic logP: 4.11
